Marks after values point to notes of the source that are not given here.
What was measured:
[1] = molecular target: T1, vitamin K epoxide reductase (VKER) (Bos taurus, UniProt Q6B4J2); test: Vitamin K epoxide reductase inhibition, bovine liver microsomal preparation, residual vitamin K epoxide by HPLC; type: biochemical
T1 construct: Microsomes were prepared from fresh cow liver; from tissue; host or cells: fresh cow liver microsomes
T1 sequence (Q6B4J2 1-163): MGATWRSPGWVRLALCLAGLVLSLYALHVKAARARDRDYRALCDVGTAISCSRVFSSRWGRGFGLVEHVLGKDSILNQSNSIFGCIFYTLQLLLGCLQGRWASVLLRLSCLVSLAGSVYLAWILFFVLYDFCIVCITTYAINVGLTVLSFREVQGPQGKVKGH
Experimental: Compounds of the subject invention were tested against vitamin K epoxide reductase.
Briefly: increasing concentrations of compounds were incubated in the presence of vitamin K epoxide and in the presence of a bovine microsomal preparation containing vitamin K epoxide reductase. The amount of residual vitamin K epoxide at the end of the incubation period was directly proportional to the inhibitory activity of the test compounds on the enzyme.
Microsomes were prepared from fresh cow liver according to the method described in: “Purification of gamma-glutamyl carboxylase from bovine liver. Wu S M, Mutucumarana V P, and Stafford D W. Methods in Enzymology (1997) 282:346-57.”
Serial dilutions of test compounds were prepared as follows: Dissolve the test compounds to a final dilution of 10 mM either in water or in DMSO (if not soluble in water). From this mother solution, prepare 2 further dilutions by diluting it with water: one 200 μM solution and one 5 mM solution. Prepare a series of tubes as follows:
Remove 15 μL from tube 4 and add to tube 5, vortex, then remove 15 μL from tube 5 and add to tube 6, vortex, etc. . . . until 15 μL is added to tube 9. Vortex and then remove 15 μL from tube 9.
Prepare another set of 4 tubes and add 30 μL of water.
A reaction mixture consisting of 600 μL buffer (2.5M NaCl, 0.125M MOPS, pH7.5), 520 μL water, and 150 μL of 10% CHAPS was prepared. The tubes were kept on ice for 5 minutes and then 500 μL of microsomal preparation was added. The mixture was mixed by vortex and kept on ice for 10 min for sufficient solubilization. To this was added 150 μL of vitamin K epoxide solution (1.5 mg/ml in isopropanol), then again vortexed and kept on ice for 5 minutes. An aliquot (70 μL) of this reaction mix was added to each one of the series of tubes prepared as above and containing serial dilutions of test compounds in 30 μL of water. The tubes were then vortexed and then kept on ice for 5 min. To 2 of the water-containing tubes was added 500 μL of a stop reagent consisting of 5 volumes of 50 mM AgNO3 and 5 volumes of isopropanol. These 2 tubes were used to measure a zero value.
The tubes were placed in a 30 C mixer for 3 min and 5 μL of 100 mM DTT solution in water was added. The tubes were then vortexed and kept in the dark without shaking for another 20 min, at the end of which 500 μL of the stop reagent was added.
To each tube was then added 600 μL of a 100 μg/ml solution of vitamin E in hexane, the tubes were capped and then vortexed for 1 minute. The tubes were then centrifuged for 5 min at 5,000 g, and the upper layer (the hexane layer) was transferred to a series of fresh tubes. The hexane was evaporated at room temperature in the dark using a speedvac, and the resulting pellet was resuspended in 100 μL of methanol.
The amount of vitamin K epoxide in each sample was then measured using a HPLC determination method. Residual vitamin K epoxide was then plotted against test compound concentration.

[2] = system: pooled human liver microsomes (esterase); test: Metabolism in pooled human liver microsomes without NADPH (esterase alone); type: in vitro ADME; conditions: 2 μM final concentration
Experimental: (§1) Pooled human liver microsomes were used as an in vitro model of drug metabolism. These microsomes contain both esterase and CYP450 drug metabolizing enzymes. Pooled human microsomes were suspended in Tris buffer (50 mM, pH 7.4) at a final concentration of 1 mg/mL of microsomal protein. Test compounds dissolved in acetonitrile:DMSO (1:99) were added to a final concentration of 2 μM. Incubations were performed at 37° C. and samples (50 μL) were collected after 5, 15, 30, 60 and 90 minutes and then were precipitated by the addition of 100 μL of acetonitrile containing Internal Standard and centrifuged at 14,000 rpm for 15 min at 4° C. Samples were analyzed by LC/MS/MS for the content of parent drug.
(§2) To determine the role of CYP450 in the metabolism, incubations were run either with or without an NADPH regenerating system−NADPH is an obligate cofactor for CYP450 enzymes. Incubations that included NADPH cofactor represent the total metabolism by CYP450+ esterase. […] Thus, when the relative decline of parent drug observed is greater in the presence of NADPH, the metabolism is CYP450-mediated. When the relative decline is equivalent in the presence and absence of cofactor the metabolism is esterase mediated.

[3] = Control incubation without microsomes (buffer stability); type: physicochemical; conditions: 2 μM final concentration, no microsomes; for half-life at 2 μM: buffer without microsomes (control incubation), pH 7.4, read-out: Buffer Est T½
Experimental: as §1, with “Pooled human microsomes were suspended in Tris buffer (50 mM, pH 7.4) at a final concentration of 1 mg/mL of microsomal protein.” left out
All of the compounds were stable.

[4] = system: pooled human liver microsomes (CYP450 + esterase); test: Metabolism in pooled human liver microsomes with NADPH (CYP450 + esterase); type: in vitro ADME; conditions: 2 μM final concentration
[5] = Metabolism in pooled human liver microsomes without NADPH (esterase alone); type: in vitro ADME; conditions: human, pooled human liver microsomes without NADPH, pH 7.4, 2 μM final concentration, read-out: Esterase Est T½
Experimental: as §1, §2

[6] = Metabolism in pooled human liver microsomes with NADPH (CYP450 + esterase); type: in vitro ADME; conditions: human, pooled human liver microsomes with NADPH regenerating system, pH 7.4, 2 μM final concentration, read-out: CYP + Esterase Est T½
human IKr (hERG) = molecular target: T2, human IKr (hERG) (Homo sapiens, UniProt Q12809); test: Whole-cell patch-clamp recording of IKr in stably transfected HEK-293 cells expressing the hERG gene; type: cell-based
T2 construct: expressed in transfected cells; host or cells: HEK-293, stably transfected
Experimental: Electrophysiological recordings of IKr in stably transfected HEK-293 cells were made in the whole cell configuration of the patch-clamp technique (Hamill et al, 1981) using an Axopatch 200B amplifier (Axon Instruments, Foster City, Calif.). Patch microelectrodes were pulled from 1.5-mm borosilicate glass tubing using a two-stage vertical pipette puller (Narishige, East Meadow, N.Y.). […] HEK-293 cells were plated in 35 mm plastic cell and tissue culture dishes for 2-3 days. For application of drug-containing solutions to cells, the SF-77B system (Warner Instrument Corp, Hamden, Conn.) was used. Solution exchanges were completed within 20 ms. Current data were digitized online using a DigiData 1200A analog-to-digital board (Axon Instruments) and stored on the hard disc of an IBM compatible Pentium computer (GP7-600 MHz, Gateway Computer, Sioux City, N. Dak.). […]
The effect of warfarin, 2,2,2-trifluoro-1-methyl-1-(trifluoromethyl)ethyl 4-[(4-hydroxy-2-oxo-2H-chromen-3-yl)methyl]benzoate and its corresponding acid metabolite, 4-[(4-hydroxy-2-oxo-2H-chromen-3-yl)methyl]benzoic acid on IKr was studied in a stably transfected HEK-293 cell line using a two-pulse protocol. […] Tail IKr amplitude was measured as the difference between the peak current and baseline current at −50 mV in control and in the presence of ATI-compounds when steady-state block was obtained.

[7] = Broad cellular and biochemical receptor screening assay; conditions: concentrations up to 10 μM

T2 sequence (Q12809 whole entry): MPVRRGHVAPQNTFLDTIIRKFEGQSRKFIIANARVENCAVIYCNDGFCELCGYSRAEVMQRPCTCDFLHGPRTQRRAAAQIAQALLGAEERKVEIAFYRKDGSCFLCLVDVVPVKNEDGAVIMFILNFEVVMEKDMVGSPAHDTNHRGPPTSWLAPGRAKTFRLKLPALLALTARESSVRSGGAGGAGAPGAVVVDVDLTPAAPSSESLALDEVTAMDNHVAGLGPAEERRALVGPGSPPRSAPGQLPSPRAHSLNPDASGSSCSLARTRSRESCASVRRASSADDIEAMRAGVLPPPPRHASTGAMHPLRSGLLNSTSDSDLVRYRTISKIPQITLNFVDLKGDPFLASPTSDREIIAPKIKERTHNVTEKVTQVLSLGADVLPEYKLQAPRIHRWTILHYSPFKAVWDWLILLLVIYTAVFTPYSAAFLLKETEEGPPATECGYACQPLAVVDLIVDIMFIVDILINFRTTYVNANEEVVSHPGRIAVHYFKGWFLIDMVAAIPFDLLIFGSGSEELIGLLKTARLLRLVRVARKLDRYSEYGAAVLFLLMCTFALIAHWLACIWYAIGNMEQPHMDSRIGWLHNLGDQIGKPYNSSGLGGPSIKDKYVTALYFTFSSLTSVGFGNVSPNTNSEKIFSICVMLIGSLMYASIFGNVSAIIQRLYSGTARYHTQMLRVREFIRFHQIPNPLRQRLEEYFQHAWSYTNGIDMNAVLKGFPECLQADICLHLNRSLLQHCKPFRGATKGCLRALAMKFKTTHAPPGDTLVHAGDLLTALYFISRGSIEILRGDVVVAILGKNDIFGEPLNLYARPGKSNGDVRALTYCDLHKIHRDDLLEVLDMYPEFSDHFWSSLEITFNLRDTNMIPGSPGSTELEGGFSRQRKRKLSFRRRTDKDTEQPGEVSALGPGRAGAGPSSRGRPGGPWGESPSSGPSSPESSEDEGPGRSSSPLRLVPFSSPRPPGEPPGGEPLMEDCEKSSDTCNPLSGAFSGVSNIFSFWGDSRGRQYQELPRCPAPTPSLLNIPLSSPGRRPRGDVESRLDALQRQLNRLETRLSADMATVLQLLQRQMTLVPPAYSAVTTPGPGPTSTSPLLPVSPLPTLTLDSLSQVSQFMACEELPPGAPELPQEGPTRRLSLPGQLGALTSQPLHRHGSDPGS

Row | IC50 [1] | Esterase Est T½ [2] | Esterase % Stability at 90 min [2] | Buffer % Stability at 90 min [3] | half-life at 2 μM [3] | CYP + Esterase Est T½ [4] | CYP + Esterase % Stability at 90 min [4] | half-life at 2 μM [6] | Structure (SMILES) | half-life at 2 μM [5] | IC50 (human IKr (hERG)) | activity in broad cellular and biochemical receptor screening [7]
1 | 4.02 µM | > 90 min | 86% | 123% | > 90 min | > 90 min | 70% | – | CC(OC(=O)c1ccc(Cc2c(O)c3ccccc3oc2=O)cc1)C(F)(F)C(F)(F)F (stereo not shown) [drawing 31] | – | – | –
2 | 3.38 µM | – | 70% | 108% | > 90 min | – | 69% | > 90 min | CC(OC(=O)c1ccc(Cc2c(O)c3ccccc3oc2=O)cc1)C(F)(F)C(F)(F)F (racemic) | > 90 min | – | –
3 | 4.15 µM | ~30 min | 27% | 113% | – | ~30 min | 24% | – | CC(OC(=O)c1ccc(Cc2c(O)c3ccccc3oc2=O)cc1)C(F)(F)C(F)(F)F (stereo not shown) [drawing 32] | – | – | –

The next lines start with the compound.

Row | Structure (SMILES) | IC50 [1] | Esterase Est T½ [2] | Esterase % Stability at 90 min [2] | Buffer % Stability at 90 min [3] | half-life at 2 μM [3] | CYP + Esterase Est T½ [4] | CYP + Esterase % Stability at 90 min [4] | half-life at 2 μM [6] | half-life at 2 μM [5] | IC50 (human IKr (hERG)) | activity in broad cellular and biochemical receptor screening [7]
4 | CC(=O)CC(c1ccccc1)c1c(O)c2ccccc2oc1=O (stereo not shown) [Warfarin, reference compound] | 3 ± 0.8 µM | – | – | – | – | – | – | – | – | – | –
5 | O=C(O)c1ccc(Cc2c(O)c3ccccc3oc2=O)cc1 [4-[(4-hydroxy-2-oxo-2H-chromen-3-yl)methyl]benzoic acid] | – | – | – | – | – | – | – | – | – | > 1000 µM | Nor did either compound exhibit significant activity
6 | CC(OC(=O)c1ccc(Cc2c(O)c3ccccc3oc2=O)cc1)(C(F)(F)F)C(F)(F)F [2,2,2-trifluoro-1-methyl-1-(trifluoromethyl)ethyl 4-[(4-hydroxy-2-oxo-2H-chromen-3-yl)methyl]benzoate] | – | – | – | – | – | – | – | – | – | > 100 µM | Nor did either compound exhibit significant activity
7 | O=C(O)c1ccc(Cc2c(O)c3ccccc3oc2=O)cc1 [drawing 28] | > 30 µM | – | – | 99% | > 90 min | – | 101% | > 90 min | – | – | –
8 | CC(OC(=O)c1ccc(Cc2c(O)c3ccccc3oc2=O)cc1)(C(F)(F)F)C(F)(F)F [drawing 30] | 5.07 µM | – | 96% | 92% | > 90 min | – | 90%** (>90 min) | > 90 min | > 90 min | – | –
